Key:
Cholinesterase = Cholinesterase (Equus caballus, UniProt P81908); assay: Inhibition of equine serum BuChE using BTCI as substrate preincubated for 30 mins followed by substrate addition measured after 30 mins by Ellman assay
Acetylcholinesterase [1] = target: T1, Acetylcholinesterase (Homo sapiens, UniProt P22303); assay: Inhibition of human erythrocyte AChE using ATCI as substrate preincubated for 30 mins followed by substrate addition measured after 30 mins by Ellman assay
in vitro [2] = conditions: human
Description: Cytotoxicity against human SH-SY5Y cells assessed as cell viability at 40 uM after 24 hrs by MTT assay

in vitro [3] = conditions: human; remark: listed apart in the source
Description: Cytotoxicity against human SH-SY5Y cells assessed as cell viability at 80 uM after 24 hrs by MTT assay

[4] = Permeability of the compound at 100 ug/ml incubated for 120 mins by PAMPA; format: ADME; conditions: read-out: Peff
Acetylcholinesterase [5] = target: T1, Acetylcholinesterase; conditions: at 10 µM
Description: Inhibition of human erythrocyte AChE-induced Abeta (1 to 42) aggregation at 10 uM incubated for 24 hrs by thioflavin-T fluorescence assay

T1 sequence (P22303 whole entry): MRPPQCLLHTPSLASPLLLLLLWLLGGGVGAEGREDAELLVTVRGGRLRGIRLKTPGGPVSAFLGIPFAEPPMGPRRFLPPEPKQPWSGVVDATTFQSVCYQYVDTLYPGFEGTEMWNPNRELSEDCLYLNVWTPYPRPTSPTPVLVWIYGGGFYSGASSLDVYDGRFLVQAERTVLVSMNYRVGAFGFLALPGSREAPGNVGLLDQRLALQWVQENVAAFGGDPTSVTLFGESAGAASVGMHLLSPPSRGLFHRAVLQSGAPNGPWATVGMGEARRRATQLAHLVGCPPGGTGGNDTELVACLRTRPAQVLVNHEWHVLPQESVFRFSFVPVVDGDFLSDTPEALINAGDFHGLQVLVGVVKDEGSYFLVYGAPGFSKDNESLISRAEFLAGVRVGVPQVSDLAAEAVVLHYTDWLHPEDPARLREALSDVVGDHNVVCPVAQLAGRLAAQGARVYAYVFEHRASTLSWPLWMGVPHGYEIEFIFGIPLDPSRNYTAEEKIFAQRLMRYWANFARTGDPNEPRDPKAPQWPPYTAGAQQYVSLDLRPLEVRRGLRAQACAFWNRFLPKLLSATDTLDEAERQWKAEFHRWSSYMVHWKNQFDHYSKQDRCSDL
Sequence of Cholinesterase (P81908 whole entry): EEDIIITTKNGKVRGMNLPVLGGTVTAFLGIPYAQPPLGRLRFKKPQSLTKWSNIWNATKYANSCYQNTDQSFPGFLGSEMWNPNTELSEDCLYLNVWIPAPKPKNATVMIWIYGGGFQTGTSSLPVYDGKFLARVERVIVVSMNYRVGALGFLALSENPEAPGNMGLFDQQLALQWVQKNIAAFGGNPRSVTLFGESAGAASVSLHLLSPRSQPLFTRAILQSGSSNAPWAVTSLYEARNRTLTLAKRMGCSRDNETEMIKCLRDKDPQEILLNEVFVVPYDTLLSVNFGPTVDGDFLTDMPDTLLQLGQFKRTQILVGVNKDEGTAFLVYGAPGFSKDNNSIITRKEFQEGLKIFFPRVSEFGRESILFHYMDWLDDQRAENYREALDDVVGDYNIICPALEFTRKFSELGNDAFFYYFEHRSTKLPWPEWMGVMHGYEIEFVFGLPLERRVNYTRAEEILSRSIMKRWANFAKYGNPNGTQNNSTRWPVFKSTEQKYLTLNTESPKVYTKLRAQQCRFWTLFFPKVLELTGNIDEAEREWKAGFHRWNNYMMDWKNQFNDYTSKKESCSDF

| Compound | IC50 (Cholinesterase) [nM] | IC50 (Acetylcholinesterase [1]) [nM] | viability at 24 h, 40 µM (in vitro [2]; SH-SY5Y cells) [%] | viability at 24 h, 80 µM (in vitro [3]; SH-SY5Y cells) [%] | Papp at 2 h, 100 ug/ml [4] [×10⁻⁶ cm/s] | inhibition (Acetylcholinesterase [5]) [%] | viability at 24 h, 40 µM (in vitro [2]; sh-sy5y) [%] | viability at 24 h, 80 µM (in vitro [3]; sh-sy5y) [%] |
| --- | --- | --- | --- | --- | --- | --- | --- | --- |
| Cc1ccc(-c2nc(NC(=O)C3CCN(Cc4c(F)cccc4Cl)CC3)sc2-c2ccc(C)cc2)cc1 | 2770 | 2880 | – | – | – | – | – | – |
| Cc1ccc(-c2nc(NC(=O)C3CCN(Cc4ccc(C#N)cc4)CC3)sc2-c2ccc(C)cc2)cc1 | 5320 | 1280 | – | – | – | – | – | – |
| COc1ccc(CN2CCC(Nc3nc(-c4ccc(OC)cc4)c(-c4ccc(OC)cc4)s3)CC2)cc1 | 2530 | 770 | 92.1 | 89.5 | 10.3 | 11.4 | – | – |
| COc1ccc(-c2nc(NCC3CCN(Cc4ccccc4C)CC3)sc2-c2ccc(OC)cc2)cc1 | 2210 | 590 | 91.6 | 87.2 | 12.3 | 25.6 | – | – |
| COc1ccc(-c2nc(NCC3CCN(Cc4ccccc4C(F)(F)F)CC3)sc2-c2ccc(OC)cc2)cc1 | 8010 | 690 | 94.2 | 90.1 | 8.4 | 20.6 | – | – |
| Cc1ccc(-c2nc(NC(=O)C3CCN(Cc4ccccc4C)CC3)sc2-c2ccc(C)cc2)cc1 | 1500 | > 10000 | – | – | – | – | – | – |
| COc1ccc(-c2nc(NC(=O)C3CCN(Cc4ccccc4C(F)(F)F)CC3)sc2-c2ccc(OC)cc2)cc1 | 1920 | 680 | 92.4 | 93.1 | 12.3 | 14.5 | – | – |
| N#Cc1ccccc1CN1CCC(C(=O)Nc2nc(-c3ccc(Cl)cc3)c(-c3ccc(Cl)cc3)s2)CC1 | 1590 | 1770 | – | – | – | – | – | – |
| COc1ccc(CN2CCC(Nc3nc(-c4ccc(Cl)cc4)c(-c4ccc(Cl)cc4)s3)CC2)cc1 | 1570 | 1120 | – | – | – | – | – | – |
| Cc1ccc(-c2nc(NC3CCN(Cc4ccccc4)CC3)sc2-c2ccc(C)cc2)cc1 | 3590 | 1280 | – | – | – | – | – | – |
| O=C(Nc1nc(-c2ccc(Cl)cc2)c(-c2ccc(Cl)cc2)s1)C1CCN(Cc2cccc(F)c2)CC1 | 720 | 650 | 93.6 | 91.1 | 15.9 | 18.8 | – | – |
| Fc1ccc(CN2CCC(Nc3nc(-c4ccc(Cl)cc4)c(-c4ccc(Cl)cc4)s3)CC2)c(Cl)c1 | 1970 | 370 | 94.2 | 92.5 | 8.4 | 27.5 | – | – |
| Clc1ccc(-c2nc(NC3CCN(Cc4ccccc4)CC3)sc2-c2ccc(Cl)cc2)cc1 | 3300 | 1380 | – | – | – | – | – | – |
| O=C(Nc1nc(-c2ccc(Cl)cc2)c(-c2ccc(Cl)cc2)s1)C1CCN(Cc2cc(F)cc(F)c2)CC1 | 3030 | 640 | 95.6 | 92.8 | 8.8 | 12 | – | – |
| Cc1ccccc1CN1CCC(C(=O)Nc2nc(-c3ccc(Cl)cc3)c(-c3ccc(Cl)cc3)s2)CC1 | 1040 | 1100 | – | – | – | – | – | – |
| Fc1ccc(CN2CCC(CNc3nc(-c4ccc(Cl)cc4)c(-c4ccc(Cl)cc4)s3)CC2)c(C(F)(F)F)c1 | 3300 | 1240 | – | – | – | – | – | – |
| COc1ccc(-c2nc(NC(=O)C3CCN(Cc4cccc(F)c4)CC3)sc2-c2ccc(OC)cc2)cc1 | 1540 | 570 | 94 | 90.3 | 12.5 | 21.2 | – | – |
| O=C(Nc1nc(-c2ccc(Cl)cc2)c(-c2ccc(Cl)cc2)s1)C1CCN(Cc2ccc(OC(F)(F)F)cc2)CC1 | 2180 | 1380 | – | – | – | – | – | – |
| COc1cc2c(cc1OC)C(=O)C(CC1CCN(Cc3ccccc3)CC1)C2 (configuration not stated) [DONEPEZIL] | – | – | – | – | – | – | 96.9 | 92.3 |
| Fc1ccc(CN2CCC(CNc3nc(-c4ccc(Cl)cc4)c(-c4ccc(Cl)cc4)s3)CC2)c(Cl)c1 | 740 | 520 | 92.7 | 88.9 | 13.2 | 15 | – | – |
| Cc1ccc(-c2nc(NC(=O)C3CCN(Cc4ccc([N+](=O)[O-])cc4)CC3)sc2-c2ccc(C)cc2)cc1 | > 10000 | 2320 | – | – | – | – | – | – |
| Cc1ccccc1CN1CCC(CNc2nc(-c3ccc(Cl)cc3)c(-c3ccc(Cl)cc3)s2)CC1 | 1430 | 870 | 95.4 | 90.9 | 8.8 | 23.3 | – | – |
| O=C(Nc1nc(-c2ccc(Cl)cc2)c(-c2ccc(Cl)cc2)s1)C1CCN(Cc2ccccc2C(F)(F)F)CC1 | 3360 | 2770 | – | – | – | – | – | – |

| Compound | IC50 (Cholinesterase) [nM] | IC50 (Acetylcholinesterase [1]) [nM] | viability at 24 h, 40 µM (in vitro [2]; SH-SY5Y cells) [%] | viability at 24 h, 80 µM (in vitro [3]; SH-SY5Y cells) [%] | Papp at 2 h, 100 ug/ml [4] [×10⁻⁶ cm/s] | inhibition (Acetylcholinesterase [5]) [%] | viability at 24 h, 40 µM (in vitro [2]; sh-sy5y) [%] | viability at 24 h, 80 µM (in vitro [3]; sh-sy5y) [%] |
| --- | --- | --- | --- | --- | --- | --- | --- | --- |
| COc1ccc(-c2nc(NC(=O)C3CCN(Cc4c(F)cccc4Cl)CC3)sc2-c2ccc(OC)cc2)cc1 | 1570 | 410 | 92.9 | 91.6 | 8.2 | 16.6 | – | – |
| Cc1ccc(-c2nc(NC(=O)C3CCN(Cc4ccc(C(F)(F)F)cc4)CC3)sc2-c2ccc(C)cc2)cc1 | 2780 | > 10000 | – | – | – | – | – | – |
| Cc1ccc(-c2nc(NCC3CCN(Cc4ccccc4C)CC3)sc2-c2ccc(C)cc2)cc1 | 2510 | 500 | 91.4 | 90.1 | 10.6 | 16.2 | – | – |
| Cc1ccc(CN2CCC(Nc3nc(-c4ccc(Cl)cc4)c(-c4ccc(Cl)cc4)s3)CC2)cc1 | > 10000 | 3190 | – | – | – | – | – | – |
| Cc1ccc(-c2nc(NCC3CCN(Cc4ccc(F)cc4)CC3)sc2-c2ccc(C)cc2)cc1 | 1950 | 370 | 91.8 | 89.7 | 10.1 | 25.8 | – | – |
| Cc1ccc(-c2nc(NC(=O)C3CCN(Cc4ccc(F)cc4Cl)CC3)sc2-c2ccc(C)cc2)cc1 | 1600 | > 10000 | – | – | – | – | – | – |
| COc1ccc(-c2nc(NC(=O)C3CCN(Cc4cc(F)cc(F)c4)CC3)sc2-c2ccc(OC)cc2)cc1 | > 10000 | 2450 | – | – | – | – | – | – |
| Cc1ccc(-c2nc(NC(=O)C3CCN(Cc4cc(F)cc(F)c4)CC3)sc2-c2ccc(C)cc2)cc1 | 3510 | 2500 | – | – | – | – | – | – |
| O=C(Nc1nc(-c2ccc(Cl)cc2)c(-c2ccc(Cl)cc2)s1)C1CCN(Cc2ccc(F)cc2Cl)CC1 | > 10000 | 3700 | – | – | – | – | – | – |
| Cc1ccc(-c2nc(NC(=O)C3CCN(Cc4cccc(F)c4)CC3)sc2-c2ccc(C)cc2)cc1 | 1970 | > 10000 | – | – | – | – | – | – |
| COc1ccc(-c2nc(NC3CCN(Cc4ccc(C(F)(F)F)cc4)CC3)sc2-c2ccc(OC)cc2)cc1 | 1680 | 750 | 94.5 | 90.4 | 8.6 | 18.9 | – | – |
| COc1ccc(-c2nc(NC(=O)C3CCN(Cc4ccccc4C)CC3)sc2-c2ccc(OC)cc2)cc1 | 1850 | 1340 | – | – | – | – | – | – |
| Cc1ccc(-c2nc(NC(=O)C3CCN(Cc4ccccc4C(F)(F)F)CC3)sc2-c2ccc(C)cc2)cc1 | 1880 | 7570 | – | – | – | – | – | – |
| COc1ccc(-c2nc(NCC3CCN(Cc4c(F)cccc4Cl)CC3)sc2-c2ccc(OC)cc2)cc1 | 2150 | 360 | 94.2 | 87.1 | 12.2 | 27.2 | – | – |
| Fc1cc(F)cc(CN2CCC(CNc3nc(-c4ccc(Cl)cc4)c(-c4ccc(Cl)cc4)s3)CC2)c1 | 820 | 630 | 92.4 | 91.7 | 12.5 | 19.4 | – | – |
| Cc1ccc(-c2nc(NCC3CCN(Cc4ccccc4C(F)(F)F)CC3)sc2-c2ccc(C)cc2)cc1 | 2200 | 400 | 93.5 | 91.7 | 12.8 | 26.4 | – | – |
| COc1ccc(-c2nc(NC3CCN(Cc4ccc(C)cc4)CC3)sc2-c2ccc(OC)cc2)cc1 | 2250 | 830 | 95.4 | 89.5 | 9.6 | 19.2 | – | – |
| COc1ccc(-c2nc(NC(=O)C3CCN(Cc4ccc(F)cc4)CC3)sc2-c2ccc(OC)cc2)cc1 | 1730 | 1160 | – | – | – | – | – | – |
| COc1ccc(-c2nc(NC(=O)C3CCN(Cc4ccccc4C#N)CC3)sc2-c2ccc(OC)cc2)cc1 | 3580 | 2800 | – | – | – | – | – | – |
| N#Cc1ccc(CN2CCC(Nc3nc(-c4ccc(Cl)cc4)c(-c4ccc(Cl)cc4)s3)CC2)cc1 | 1720 | 1020 | – | – | – | – | – | – |
| COc1ccc(-c2nc(NC(=O)C3CCN(Cc4ccc(F)cc4C(F)(F)F)CC3)sc2-c2ccc(OC)cc2)cc1 | 1780 | 1230 | – | – | – | – | – | – |
| Cc1ccc(CN2CCC(Nc3nc(-c4ccc(C)cc4)c(-c4ccc(C)cc4)s3)CC2)cc1 | 6030 | 1090 | – | – | – | – | – | – |
